Results as given in patent US20210040153A1, “OLIGOPEPTIDE HAVING DENGUE VIRUS REPLICATION INHIBITION FUNCTION AND APPLICATION THEREOF” (priority 2018, published 2021).

Assays:
[1] = test system: DENV 2; assay: cell poisoning experiments: inhibition of DENV 2 replication; assay type: cell-based, dengue virus
[2] = test system: dengue virus type 4; assay: inhibition of replication of dengue virus type 4; assay type: cell-based
[3] = test system: dengue virus type 3; assay: inhibition of replication of dengue virus type 3; assay type: cell-based
[4] = biological target: T1, NS5 (Dengue virus type 2, UniProt P14340); assay: affinity to full-length DENV NS5 recombinant protein (phage display peptide library screening); assay type: binding, DENV-2
T1 construct: His6 (C); made in house; host or cells: E. coli BL21 (DE3), pET 30a/NS5
Description: 1) The protein solution is diluted with 0.1 M NaHCO3 to 100 μg/mL. Each time, 0.7 mL of the protein solution is added dropwise to a (φ35 mm polyethylene culture dish, which is gently shaken to soak the dish, which is then coated overnight at 4° C., The coating solution is aspirated and discarded; 2 mL of a blocking solution is added, and left at 4° C. for 2 h; the blocking solution is discarded, and the plate is tap-dried; the plate is washed 6 times with TBST (TBS+0,1%[V/V]Tween−20), and tap-dried each time. […]
3) The eluted phage is added to 10 mL of the host bacterial Tet-LB culture solution (OD600 to 0.5) and then amplified; after 5 hours of culture, the culture solution is collected to purify the phage, and used for the next round of screening after the titer is measured. […]

[5] = test system: dengue virus; assay: inhibition of dengue virus replication (serotype not given); assay type: cell-based; details: serotype not stated
[6] = test system: dengue virus type 1; assay: inhibition of replication of dengue virus type 1; assay type: cell-based

For KHGHHRH [Lys-His-Gly-His-His-Arg-His], the “inhibitory effect on the replication of DENV 2 virus” value [1] was “significant inhibitory effect”, the “inhibitory effect on the replication of dengue virus type 4” value [2] was “significant inhibitory effect” and the “inhibitory effect on the replication of dengue virus type 3” value [3] was “significant inhibitory effect”. The “affinity for NS5” value [4] was “high specific affinity”, the “inhibitory effect on dengue virus replication” value [5] was “highly effective inhibitory effect” and the “inhibitory effect on dengue virus replication” value ([5]; listed as oligopeptide) was “effectively inhibit”. For the same substance, the “inhibitory effect on the replication of dengue virus type 1” value [6] was “significant inhibitory effect”.
